Measurements from patent US6737383B1, “Herbicidal oxadiazolidines” (priority 1999, dated 2004).

Columns and labels:
corn = experiment: Test B pre/postemergence corn; assay type: in vivo, Zea mays
How it was run: (§1)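 Test chemicals in a non-phytotoxic solvent mixture with surfactant were sprayed preemergence onto planted seeds and postemergence onto plants 2 to 18 cm tall (1- to 4-leaf stage). After twelve to sixteen days in a greenhouse, injury was visually rated against untreated controls from 0 (no effect) to 10 (complete control).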

rice = experiment: Test B flood test rice; assay type: in vivo, Oryza sativa
Description: At the same time, these crop and weed species were also treated with postemergence applications of test chemicals formulated in the same manner. Plants ranged in height from 2 to 18 cm (1- to 4-leaf stage) for postemergence treatments. Plant species in the flood test consisted of rice (Oryza sativa), smallflower flatsedge (Cyperus difformis), duck salad (Heteranthera limosa) and bamyardgrass (Echinochloa crus-galli) grown to the 2-leaf stage for testing. Treated plants and controls were maintained in a greenhouse for twelve to sixteen days, after which all species were compared to controls and visually evaluated. Plant response ratings, summarized in Table B, are based on a scale of 0 to 10 where 0 is no effect and 10 is complete control. A dash (−) response means no test result.

smallflower flatsedge = experiment: Test B flood test smallflower flatsedge; assay type: in vivo, Cyperus difformis
How it was run: (§2)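 Plants were grown to the 2-leaf stage before treatment with test chemical, then held in a greenhouse for twelve to sixteen days. Injury was visually rated against untreated controls on a 0–10 scale, where 0 is no effect and 10 is complete control.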

duck salad = experiment: Test B flood test duck salad; assay type: in vivo, Heteranthera limosa
How it was run: as §2

bamyardgrass = experiment: Test B flood test barnyardgrass; assay type: in vivo, Echinochloa crus-galli
How it was run: as §2

bedstraw = experiment: Test B pre/postemergence bedstraw; assay type: in vivo, Galium aparine; conditions: Preemergence
How it was run: as §1

blackgrass = experiment: Test B pre/postemergence blackgrass; assay type: in vivo, Alopecurus myosuroides; conditions: Preemergence
How it was run: as §1

surinam grass = experiment: Test B pre/postemergence surinam grass; assay type: in vivo, Brachiaria decumbens; conditions: Preemergence
How it was run: as §1

cocklebur = experiment: Test B pre/postemergence cocklebur; assay type: in vivo, Xanthium strumarium; conditions: Preemergence
How it was run: as §1

crabgrass = experiment: Test B pre/postemergence crabgrass; assay type: in vivo, Digitaria sanguinalis; conditions: Preemergence
How it was run: as §1

giant foxtail = experiment: Test B pre/postemergence giant foxtail; assay type: in vivo, Setaria faberii; conditions: Preemergence, scale of 0 to 10 where 0 is no effect and 10 is complete control
How it was run: as §1

morningglory = experiment: Test B pre/postemergence morningglory; assay type: in vivo, Ipomoea hederacea; conditions: Preemergence, scale of 0 to 10 where 0 is no effect and 10 is complete control
How it was run: as §1

pigweed = experiment: Test B pre/postemergence pigweed; assay type: in vivo, Amaranthus retroflexus; conditions: Preemergence, scale of 0 to 10 where 0 is no effect and 10 is complete control
How it was run: as §1

rape = experiment: Test B pre/postemergence rape; assay type: in vivo, Brassica napus; conditions: Preemergence, scale of 0 to 10 where 0 is no effect and 10 is complete control
How it was run: as §1

soybean = experiment: Test B pre/postemergence soybean; assay type: in vivo, Glycine max; conditions: Preemergence, scale of 0 to 10 where 0 is no effect and 10 is complete control
How it was run: as §1

sugar beet = experiment: Test B pre/postemergence sugar beet; assay type: in vivo, Beta vulgaris; conditions: Preemergence, scale of 0 to 10 where 0 is no effect and 10 is complete control
How it was run: as §1

velvetleaf = experiment: Test B pre/postemergence velvetleaf; assay type: in vivo, Abutilon theophrasti; conditions: Preemergence, scale of 0 to 10 where 0 is no effect and 10 is complete control
How it was run: as §1

wheat = experiment: Test B pre/postemergence wheat; assay type: in vivo, Triticum aestivum; conditions: Preemergence, scale of 0 to 10 where 0 is no effect and 10 is complete control
How it was run: as §1

wild oat = experiment: Test B pre/postemergence wild oat; assay type: in vivo, Avena fatua; conditions: Preemergence, scale of 0 to 10 where 0 is no effect and 10 is complete control
How it was run: as §1

purple nutsedge = experiment: Test B pre/postemergence purple nutsedge; assay type: in vivo, Cyperus rotundus; conditions: Preemergence, Rate 62 g/ha; scale of 0 to 10 where 0 is no effect and 10 is complete control
How it was run: as §1

[1] = Postemergence, Rate 62 g/ha, scale 0 to 10, 0 is no effect, 10 is complete control
[2] = Rate 125 g/ha, Postemergence section (flood test species), scale 0 to 10, 0 no effect, 10 complete control
[3] = Rate 500 g/ha, listed under Postemergence (flood test species), scale 0 to 10, 0 no effect, 10 complete control
[4] = flood test, listed under Postemergence, Rate 250 g/ha, scale 0 to 10, 0 no effect, 10 complete control
[5] = Rate 62 g/ha, scale of 0 to 10 where 0 is no effect and 10 is complete control
[6] = Rate 125 g/ha, scale of 0 to 10 where 0 is no effect and 10 is complete control
[7] = Rate 250 g/ha, scale 0 to 10 (0 no effect, 10 complete control)
[8] = Rate 500 g/ha, scale of 0 to 10 where 0 is no effect and 10 is complete control
[9] = Rate 62 g/ha, flood test species, Pre-emergence, visual evaluation after twelve to sixteen days
[10] = Rate 125 g/ha, under heading Pre-emergence, flood test species, visual evaluation after twelve to sixteen days
[11] = Rate 250 g/ha, Pre-emergence (flood test species), scale 0 to 10, 0 is no effect, 10 is complete control
[12] = Rate 500 g/ha, Pre-emergence section of Table B, 0 to 10 scale (0 no effect, 10 complete control)

Structure (SMILES): Cc1ccccc1-n1c(=O)on(C(=O)N(c2ccc(F)cc2F)C2CC2)c1=O [Compound 50]
- Corn plant response rating (corn; Rate 125 g/ha, Postemergence, scale 0 to 10, 0 no effect, 10 complete control): 0
- Rice plant response rating (rice; [1]): 0
- Rice plant response rating (rice; [2]): 0
- Rice plant response rating (rice; [3]): 0
- Rice plant response rating (rice; [4]): 0
- S. Flatsedge plant response rating (smallflower flatsedge; [1]): 0
- S. Flatsedge plant response rating (smallflower flatsedge; [2]): 0
- S. Flatsedge plant response rating (smallflower flatsedge; [3]): 0
- S. Flatsedge plant response rating (smallflower flatsedge; [4]): 0
- Ducksalad plant response rating (duck salad; [1]): 0
- Ducksalad plant response rating (duck salad; [2]): 0
- Ducksalad plant response rating (duck salad; [3]): 0
- Ducksalad plant response rating (duck salad; [4]): 0
- Barnyardgrass plant response rating (bamyardgrass; [1]): 0
- Barnyardgrass plant response rating (bamyardgrass; [2]): 0
- Barnyardgrass plant response rating (bamyardgrass; [3]): 0
- Barnyardgrass plant response rating (bamyardgrass; [4]): 0

Structure (SMILES): CC(C)N(C(=O)n1oc(=O)n(C(C)C2CCC2)c1=O)c1ccc(Cl)cc1 (stereo not shown) [Compound 701]
- Bedstraw plant response rating (bedstraw; [5]): 0
- Plant response rating, Bedstraw (bedstraw; [6]): 0
- Plant response rating, Bedstraw (bedstraw; [7]): 0
- Plant response rating, Bedstraw (bedstraw; [8]): 0
- Blackgrass plant response rating (blackgrass; [5]): 0
- Plant response rating, Blackgrass (blackgrass; [6]): 2
- Plant response rating, Blackgrass (blackgrass; [7]): 2
- Plant response rating, Blackgrass (blackgrass; [8]): 6
- B. signalgrass plant response rating (surinam grass; [5]): 0
- Plant response rating, B. signalgrass (surinam grass; [6]): 0
- Plant response rating, B. signalgrass (surinam grass; [7]): 0
- Plant response rating, B. signalgrass (surinam grass; [8]): 0
- Cocklebur plant response rating (cocklebur; [5]): 0
- Plant response rating, Cocklebur (cocklebur; [6]): 0
- Plant response rating, Cocklebur (cocklebur; [7]): 0
- Plant response rating, Cocklebur (cocklebur; [8]): 0
- Corn plant response rating (corn; Preemergence, Rate 62 g/ha, scale of 0 to 10 where 0 is no effect and 10 is complete control): 0
- Plant response rating, Corn (corn; Preemergence, Rate 125 g/ha, scale of 0 to 10 where 0 is no effect and 10 is complete control): 0
- Plant response rating, Corn (corn; Preemergence, Rate 250 g/ha, scale 0 to 10 (0 no effect, 10 complete control)): 0
- Crabgrass plant response rating (crabgrass; [5]): 0
- Plant response rating, Crabgrass (crabgrass; [6]): 10
- Plant response rating, Crabgrass (crabgrass; [7]): 10
- Giant foxtail plant response rating (giant foxtail; Rate 62 g/ha): 6
- Plant response rating, Giant foxtail (giant foxtail; Rate 125 g/ha): 10
- Morningglory plant response rating (morningglory; Rate 62 g/ha): 0
- Plant response rating, Morningglory (morningglory; Rate 125 g/ha): 0
- Redroot pigweed plant response rating (pigweed; Rate 62 g/ha): 0
- Plant response rating, Redroot pigweed (pigweed; Rate 125 g/ha): 0
- Rape plant response rating (rape; Rate 62 g/ha): 0
- Plant response rating, Rape (rape; Rate 125 g/ha): 0
- Soybean plant response rating (soybean; Rate 62 g/ha): 0
- Plant response rating, Soybean (soybean; Rate 125 g/ha): 0
- Sugarbeets plant response rating (sugar beet; Rate 62 g/ha): 0
- Plant response rating, Sugarbeets (sugar beet; Rate 125 g/ha): 0
- Velvetleaf plant response rating (velvetleaf; Rate 62 g/ha): 0
- Plant response rating, Velvetleaf (velvetleaf; Rate 125 g/ha): 0
- Wheat plant response rating (wheat; Rate 62 g/ha): 0
- Plant response rating, Wheat (wheat; Rate 125 g/ha): 0
- Wild oats plant response rating (wild oat; Rate 62 g/ha): 0
- Plant response rating, Wild oats (wild oat; Rate 125 g/ha): 0
- Nutsedge plant response rating (purple nutsedge): 0
- Plant response rating, S. Flatsedge (0 to 10 scale, 0 is no effect, 10 is complete control) (smallflower flatsedge; [9]): 0
- S. Flatsedge plant response rating (0 to 10 scale, 0 is no effect, 10 is complete control) (smallflower flatsedge; [10]): 0
- S. Flatsedge plant response rating (smallflower flatsedge; [11]): 0
- S. Flatsedge plant response rating (smallflower flatsedge; [12]): 0
- Plant response rating, Ducksalad (0 to 10 scale, 0 is no effect, 10 is complete control) (duck salad; [9]): 0
- Ducksalad plant response rating (0 to 10 scale, 0 is no effect, 10 is complete control) (duck salad; [10]): 0
- Ducksalad plant response rating (duck salad; [11]): 0
- Ducksalad plant response rating (duck salad; [12]): 3
- Plant response rating, Barnyardgrass (0 to 10 scale, 0 is no effect, 10 is complete control) (bamyardgrass; [9]): 0
- Barnyardgrass plant response rating (0 to 10 scale, 0 is no effect, 10 is complete control) (bamyardgrass; [10]): 0
- Barnyardgrass plant response rating (bamyardgrass; [11]): 0
- Barnyardgrass plant response rating (bamyardgrass; [12]): 0
